# Target: E3 ubiquitin-protein ligase Mdm2 (Homo sapiens, UniProt Q00987)
# Assay: Fluorescence-Polarization Binding Assay: The binding affinity of the MDM2 inhibitors was determined using an optimized, sensitive and quantitative fluorescence polarization-based (FP-based) binding assay using a recombinant human His-tagged MDM2 protein (residues 1-118) and a fluorescently tagged p53-based peptide.The design of the fluorescence probe was based upon a previously reported …
# Description: The assay was performed in the buffer: 100 mM potassium phosphate, pH 7.5; 100 ug/mL bovine gamma globulin; 0.02% sodium azide, 0.01% Triton X-100).
# E3 ubiquitin-protein ligase Mdm2, sequence (Q00987 whole entry, the tested form may be a part): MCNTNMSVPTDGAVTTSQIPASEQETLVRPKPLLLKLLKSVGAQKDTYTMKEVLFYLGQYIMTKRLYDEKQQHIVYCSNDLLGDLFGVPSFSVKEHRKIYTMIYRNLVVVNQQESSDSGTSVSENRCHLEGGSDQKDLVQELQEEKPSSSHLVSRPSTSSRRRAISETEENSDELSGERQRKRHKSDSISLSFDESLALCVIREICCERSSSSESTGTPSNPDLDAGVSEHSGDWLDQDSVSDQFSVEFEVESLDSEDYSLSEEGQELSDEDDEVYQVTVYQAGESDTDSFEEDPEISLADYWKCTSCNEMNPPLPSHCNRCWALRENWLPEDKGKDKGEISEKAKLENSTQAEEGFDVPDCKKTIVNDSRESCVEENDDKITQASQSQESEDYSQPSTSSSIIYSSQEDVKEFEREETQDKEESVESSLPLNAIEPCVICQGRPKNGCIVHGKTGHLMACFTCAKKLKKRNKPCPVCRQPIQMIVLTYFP
row,IC50 [nM],SMILES
1,< 1000,CC(C)(C)C[C@H]1N[C@@H](C(=O)NCC[C@H]2CC[C@H](NS(C)(=O)=O)C2)[C@H](c2cccc(Cl)c2F)[C@@]12C(=O)Nc1cc(Cl)c(F)cc12
2,< 1000,CC(C)(C)C[C@H]1N[C@@H](C(=O)NCC[C@H]2CC[C@H](N)C2)[C@H](c2cccc(Cl)c2F)[C@@]12C(=O)Nc1cc(Cl)c(F)cc12
3,< 1000,CC(C)(C)C[C@H]1N[C@@H](C(=O)NCCCNS(C)(=O)=O)[C@H](c2cccc(Cl)c2F)[C@@]12C(=O)Nc1cc(Cl)c(F)cc12
4,< 1000,CC(C)(C)C[C@H]1N[C@@H](C(=O)NCCNS(C)(=O)=O)[C@H](c2cccc(Cl)c2F)[C@@]12C(=O)Nc1cc(Cl)c(F)cc12
